Target: T1, GST-Mst1 (Homo sapiens, UniProt Q13043)
T1 sequence (Q13043 1-487): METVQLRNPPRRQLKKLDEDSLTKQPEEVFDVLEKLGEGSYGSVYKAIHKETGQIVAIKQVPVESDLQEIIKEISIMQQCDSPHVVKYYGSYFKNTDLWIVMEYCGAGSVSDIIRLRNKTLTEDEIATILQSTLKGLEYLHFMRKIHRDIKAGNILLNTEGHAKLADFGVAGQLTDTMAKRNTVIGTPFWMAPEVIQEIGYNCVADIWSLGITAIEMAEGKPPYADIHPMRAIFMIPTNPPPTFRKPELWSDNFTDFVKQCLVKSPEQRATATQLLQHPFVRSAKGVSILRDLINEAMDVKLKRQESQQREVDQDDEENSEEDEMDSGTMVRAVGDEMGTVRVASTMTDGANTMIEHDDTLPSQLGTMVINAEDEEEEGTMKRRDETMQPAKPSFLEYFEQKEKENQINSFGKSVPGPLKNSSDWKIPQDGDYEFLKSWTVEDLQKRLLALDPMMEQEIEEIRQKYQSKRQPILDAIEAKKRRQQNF
Test: GST-Mst1 in vitro kinase assay (ATP consumption assay)
Details: result in words

CN[C@@H]1C[C@H]2O[C@@](C)([C@@H]1OC)n1c3ccccc3c3c4c(c5c6ccccc6n2c5c31)C(=O)NC4 [staurosporine]
inhibition of MST1 kinase activity (ATP consumption): completely inhibit
inhibition of MST1 kinase activity (ATP consumption) (listed as Staurosporine): inhibit completely

From patent publication US20090149375A1, “USE OF THE MST PROTEIN FOR THE TREATMENT OF A THROMBOEMBOLIC DISORDER” (SANOFI-AVENTIS, priority 2005, published 2009)
